In patent USRE49517E1, “Pyrazoles” (Janssen Pharmaceuticals, Inc., priority 2014, dated 2023):

Target: human ERG receptor (Homo sapiens (Human), UniProt Q12809)
Assay: HERGBD: inhibition of specific [3H]-Dofetilide binding to the hERG receptor
Conditions: HEK cell membranes
Description: Inhibition of Specific Binding to the hERG—Receptor (HERGBD)
A HEK cell line with stable transfected human ERG receptor was used for the assay. The cells were grown adherently and maintained in DULBECCOS' MEM medium with 10% FBS, 1% non-essential amino acids, 1% Penicillin/Streptomycin and 400 μg/ml G418 (Calbiochem).
For binding assays and membrane preparations the cell culture medium was removed, cells were washed with PBS. Crude membranes for radioligand binding experiments were prepared by scraping the cells off the dishes in ice cold 20 mM HEPES/0.1 mM KCl/pH 7.2. […]
Binding was terminated by filtration of the incubated membrane preparations using Filtermat B (Pharmacia, Uppsala Sweden) and a Micro Cell Harvester (Skatron, Lier, Norway). The Filtermat B had been presoaked with 1% polyethylen imine and carefully washed with 0.05 M Tris/HCl-buffer pH=7.7 after the filtration to separate free and bound radioactivity. The filters were counted in a scintillation counter (Betaplate 1205, Berthold, Wildbad, Germany) in order to determine the specific binding of [^3H]-Dofetilide.
The optimal amount of membrane preparation in the assay was determined and optimized for each membrane preparation separately in front of using the membranes in compound testing. […]

Sequence of human ERG receptor (Q12809 whole entry): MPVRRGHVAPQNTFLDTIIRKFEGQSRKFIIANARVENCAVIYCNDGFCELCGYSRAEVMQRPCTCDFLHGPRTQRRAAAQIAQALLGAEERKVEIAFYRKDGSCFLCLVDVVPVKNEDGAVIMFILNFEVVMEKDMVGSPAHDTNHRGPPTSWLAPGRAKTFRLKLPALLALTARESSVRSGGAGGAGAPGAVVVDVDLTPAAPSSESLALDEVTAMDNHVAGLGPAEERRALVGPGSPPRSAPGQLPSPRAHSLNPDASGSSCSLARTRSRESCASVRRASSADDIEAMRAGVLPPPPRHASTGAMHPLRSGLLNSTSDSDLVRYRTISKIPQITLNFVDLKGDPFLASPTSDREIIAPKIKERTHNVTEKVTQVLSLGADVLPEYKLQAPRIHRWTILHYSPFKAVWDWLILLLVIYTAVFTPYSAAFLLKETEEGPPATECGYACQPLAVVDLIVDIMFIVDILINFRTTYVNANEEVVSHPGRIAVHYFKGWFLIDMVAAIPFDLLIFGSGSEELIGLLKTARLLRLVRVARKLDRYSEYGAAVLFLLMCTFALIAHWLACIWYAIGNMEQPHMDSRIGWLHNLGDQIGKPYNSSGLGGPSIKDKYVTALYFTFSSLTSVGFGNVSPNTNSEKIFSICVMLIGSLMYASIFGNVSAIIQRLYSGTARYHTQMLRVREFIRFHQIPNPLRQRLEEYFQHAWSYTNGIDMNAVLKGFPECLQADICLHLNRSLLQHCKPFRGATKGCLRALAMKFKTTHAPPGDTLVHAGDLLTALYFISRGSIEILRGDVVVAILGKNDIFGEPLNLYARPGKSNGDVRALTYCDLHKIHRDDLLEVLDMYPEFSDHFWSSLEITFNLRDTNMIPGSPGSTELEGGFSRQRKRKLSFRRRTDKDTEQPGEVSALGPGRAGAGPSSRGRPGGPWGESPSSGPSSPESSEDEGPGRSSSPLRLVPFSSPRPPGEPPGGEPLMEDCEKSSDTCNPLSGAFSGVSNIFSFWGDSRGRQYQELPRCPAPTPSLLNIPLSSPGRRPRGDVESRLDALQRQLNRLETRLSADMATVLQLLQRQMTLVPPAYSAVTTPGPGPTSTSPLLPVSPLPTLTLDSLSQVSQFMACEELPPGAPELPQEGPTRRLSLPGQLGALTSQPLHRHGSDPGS

Row | SMILES | IC50 [µM]
1 | Cn1ccc(Cn2cc(-c3cccc(C(F)(F)F)c3)cn2)n1 [Example 49, 1-methyl-3-[[4-[3-(trifluoromethyl)phenyl]pyrazol-1-yl]methyl]pyrazole] | 19
2 | Cc1cc(Cn2cc(-c3ccc(C(F)(F)F)cc3)cn2)n(C)n1 [Example 51, 1,3-Dimethyl-5-[[4-[4-(trifluoromethyl)phenyl]pyrazol-1-yl]methyl]-Pyrazole] | 137
